# Measurements reported in patent US12715851B2, “4′-substituted analogues of fisetin and their use in the treatment of cancer” (Stellenbosch University, priority 2020, dated 2026).
# “Also recorded” adds a separate entry of the source.
# Assays:
# [1] = system: H1299 human lung cancer cells; assay: Cell cycle distribution, propidium iodide flow cytometry; type: cell-based; details: 48 h; for G2/M phase arrest: H1299
# Method: (§1) To examine the effect of Fisetin analogues on cell cycle regulation, cells were treated with different concentrations of Fisetin analogues (5, 10 & 20 μM) for 48 h, then stained with propidium iodide and subjected to flow cytometry. All three of the tested Fisetin analogues induced G2/M phase cell cycle arrest in A549 (FIGS. 5A-5C) and H1299 human lung cancer cells (FIGS. 5D-5F).
# [2] = system: H1299 cells; assay: Western blot of signalling, cell cycle and apoptosis markers; type: cell-based, human
# From the text: (§2) Similarly, in H1299 cells analogue 3a induced a 11.7 to 14.9% cell death (FIG. 4D right) compared to 3.8% in control cells. Analogue 3c (FIG. 4E right) and analogue 3e (FIG. 4F right) induced cell death of 8.2 to 15.1% and 8.8 to 16.6% respectively. For western blot experiments, two concentrations were used, i.e. the IC50 concentration and the next higher concentration utilized for cell proliferation for each cell line.
# In H1299 cells (FIG. 4H), the higher concentrations of all three Fisetin analogues decreased the expression of pErk1/2. […]
# The decreased expression of these proteins explains the decreased cell proliferation in both A549 and H1299 cells. […] Consistent with A549 data, all three the Fisetin analogues decreased the expression of anti-apoptotic protein Bcl-2 at both the concentrations. In H1299 cells, all the analogues increased cleaved Caspase-3 compared to control untreated cells. Thus, modulation of apoptosis regulatory proteins has caused apoptosis in both A549 and H1299 cells by the tested Fisetin analogues.
# [3] = system: A549; assay: Cell cycle distribution, propidium iodide flow cytometry; type: cell-based, human; details: 10 & 20 μM, 48 h
# Method: as §1
# [4] = system: A549 cells; assay: Trypan blue cell exclusion assay, cell proliferation and death; type: cell-based; details: Homo sapiens, A549, 48 h, read-out: IC50 concentration
# Method: (§3) To evaluate the effect of Fisetin analogues 3a, 3c and 3e on cell proliferation and death of human lung cancer cells, trypan blue cell exclusion assays were performed. A549 and H1299 cancer cells were treated with different concentrations of three selected Fisetin analogues for 48 h. The Fisetin analogues decreased the viability of cells and caused cell death in both the cell lines in a concentration dependent fashion. A549 and H1299 cells were treated with 5, 10 and 20 μM of Fisetin analogues for 48 h. All three analogues decreased cell proliferation and induced cell death.
# [5] = system: H1299 lung cancer cells; assay: as above; type: cell-based; details: Homo sapiens, NCI-H1299, H1299, 48 h, read-out: IC50 concentration
# Method: as §3
# [6] = system: A549 cells; assay: Western blot of signalling, cell cycle and apoptosis markers; type: cell-based, human; details: IC50 concentration and 20 μM
# From the text: as §2
# The expression of pro-oncogenic signalling molecules, which are involved in proliferation and survival of cancer cells, were evaluated.
# The effect of the Fisetin analogues on molecular markers of apoptosis was assessed.
# [7] = system: A549; assay: Apoptosis assay; type: cell-based, human; details: 48 h, control cells 4.7%
# From the text: (§4) In A549, analogue 3a induced 8.2 and 11.2% apoptosis, analogue 3c induced 13.4 and 17.2% apoptosis, and analogue 3e induced 10.6 to 19.5% apoptosis compared to 4.7% in control cells (FIG. 6A).
# [8] = system: H1299 cancer cells; assay: Apoptosis assay; type: cell-based, human; details: 48 h
# From the text: [Worded in the source for another cell line; used here, by the source, with some conditions changed.] as §4
# [9] = system: A549 lung cancer cell line; assay: MTT cell proliferation assay, cytotoxicity after 48 h treatment; type: cell-based, human; details: for variation in cytotoxicity with A-ring substitution: A549, 4′-Br analogues; for activity against lung cancer cell lines compared with the parent Fisetin: A549 and/or H1299
# Method: These 4′-substituted Fisetin analogues were initially screened for cytotoxicity against the A549 lung cancer cell line following a 48 h treatment period. Cytotoxicity IC50's were quantified using the MTT cell proliferation assay. The compounds were not found to interfere with the assay by causing an increase in background absorbance, no correlation was found between the lipophilicity and cytotoxicity at this position, and the substituent size was also not found to be important.
# [10] = system: H1299 lung cancer cells; assay: Cytotoxicity / cell viability of H1299 cells; type: cell-based, human; details: 4′-Br analogues
# From the text: Analogues were also synthesised to all contain Br in the B-ring 4′-position, and in which the A-ring substitution pattern alone was varied. […] Based on the strong activity of analogue 3c, it was selected together with analogues 3a and 3e for further mechanistic evaluation in lung cancer cells.
# [11] = cited from earlier work
structure (smiles),measurement,setting,value
"O=c1c(O)c(-c2ccc(Br)cc2)oc2ccccc12 [analogue 3a, 4′-Bromo-3-hydroxyflavone]",G2/M phase arrest,[1]; 10 & 20 μM,induced G2/M phase arrest in both the cell lines significantly
same,Phospho-Cdc-2 expression,[2]; IC50 concentration and 10 μM,marginally decreased
same,Total Cdc-2,[2]; IC50 concentration and 10 μM,marginally affected by higher concentration
same,expression of Bax,[2]; IC50 concentration and 10 μM,slightly higher
same,expression of phospho Akt,[2]; IC50 concentration and 10 μM,did not affect the expression of phospho and total Akt at both the concentrations
same,expression of phospho-EGFR,[2]; IC50 concentration and 10 μM,lower concentration of analogue 3a did not affect the expression of both phospho and total EGFR; also recorded: higher concentration of analogue 3a significantly decreased the expression of both phospho and total EGFR
same,expression of total Akt,[2]; IC50 concentration and 10 μM,did not affect the expression of phospho and total Akt at both the concentrations
same,expression of total EGFR,[2]; IC50 concentration and 10 μM,lower concentration of analogue 3a did not affect the expression of both phospho and total EGFR; also recorded: higher concentration of analogue 3a significantly decreased the expression of both phospho and total EGFR
same,G2/M phase arrest,[3],induced G2/M phase arrest in both the cell lines significantly
same,IC50,[4],11.9 µM
same,IC50,[5],4.5 µM
same,cleaved caspase-3,[6],increased the cleavage of caspase-3 significantly
same,expression of p21,[6],increased the expression of p21 marginally at both the concentrations
same,expression of phospho Cdc-2,[6],slightly decreased the phospho form of Cdc-2 at higher concentration
same,expression of phospho-Erk1/2,[6],decreased the expression of phospho-Erk1/2 significantly at both the concentrations
same,expression of pro-apoptotic protein Bax,[6],slightly increased the expression of pro-apoptotic protein Bax
same,total Stat-3 expression,[6],not affected
same,total form of Akt,[6],slightly downregulated
same,total form of Erk1/2,[6],not affected
same,apoptosis,[7]; IC50 concentration,8.2%
same,apoptosis,[7]; higher concentration 20 μM,11.2%
same,apoptosis,[8]; IC50 concentration,13.2%
same,apoptosis,[8]; higher concentration 10 μM,17.8%
"COCOc1ccc2c(=O)c(O)c(-c3ccc(Br)cc3)oc2c1 [analogue 3b, 4′-Bromo-3-hydroxy-7-methoxymethoxyflavone]",variation in cytotoxicity with A-ring substitution,[9],little variation in cytotoxicity
same,variation in cytotoxicity with A-ring substitution,[10],little variation in cytotoxicity
"COCOc1ccc2oc(-c3ccc(Br)cc3)c(O)c(=O)c2c1 [analogue 3d, 4′-Bromo-3-hydroxy-6-methoxymethoxyflavone]",variation in cytotoxicity with A-ring substitution,[9],little variation in cytotoxicity
same,variation in cytotoxicity with A-ring substitution,[10],little variation in cytotoxicity
"O=c1c(O)c(-c2ccc(Br)cc2)oc2ccc(O)cc12 [analogue 3e, 4′-Bromo-3,6-dihydroxyflavone]",S-phase arrest,"[1]; 20 μM, cell line not given",induced S-phase arrest
same,G2/M phase arrest,[1]; 5 μM,induced G2/M phase arrest
same,G2/M phase arrest,[1]; 10 & 20 μM,induced G2/M phase arrest in both the cell lines significantly
same,Phospho-Cdc-2 expression,[2]; IC50 concentration and 10 μM,both concentrations of analogue 3e decreased the expression of phospho-Cdc-2
same,Total Cdc-2,[2]; IC50 concentration and 10 μM,no effect
same,expression of Bax,[2]; IC50 concentration and 10 μM,increased the expression of pro-apoptotic protein Bax
same,expression of phospho Akt,[2]; IC50 concentration and 10 μM,significantly decrease the phospho Akt
same,expression of phospho-EGFR,[2]; IC50 concentration and 10 μM,significantly decreased the expression of phospho-EGFR
same,expression of total Akt,[2]; IC50 concentration and 10 μM,did not affect the total Akt
same,expression of total EGFR,[2]; IC50 concentration and 10 μM,did not affect the expression levels of total EGFR
same,expression of total Erk1/2,[2]; IC50 concentration and 10 μM,decreased the expression of total Erk1/2 significantly
same,expression of total Stat-3,[2]; higher concentration (10 μM),decreased the expression of total Stat-3 at higher concentrations
same,G2/M phase arrest,[3],induced G2/M phase arrest in both the cell lines significantly
same,variation in cytotoxicity with A-ring substitution,[9],little variation in cytotoxicity
same,IC50,[4],12.3 µM
same,IC50,[5],3.1 µM
same,cleaved caspase-3,[6],both the concentrations of analogue 3e increased the cleaved caspase-3 marginally
same,expression of p21,[6],increased the p21 expression to a much higher level at both the concentrations
same,expression of phospho Cdc-2,[6],IC50 concentration decreased the expression to some extent; also recorded: the higher concentrations decreased the phospho-Cdc-2 expression significantly
same,expression of phospho-Erk1/2,[6],decreased the expression of phospho-Erk1/2 significantly at both the concentrations
same,expression of phospho-Stat-3,[6],completely abolished the expression of p-Stat-3
same,expression of pro-apoptotic protein Bax,[6],increased the expression of Bax with much higher potential
same,total Stat-3 expression,[6],significantly decreased the expression of total Stat-3
same,total form of Akt,[6],decreased the expression of total Akt at both the concentrations
same,total form of Erk1/2,[6],not affected
same,apoptosis,[7]; IC50 concentration,10.6%
same,apoptosis,[7]; higher concentration 20 μM,19.5%
same,apoptosis,[8]; IC50 concentration,12.1%
same,apoptosis,[8]; higher concentration 10 μM,19.5%
same,variation in cytotoxicity with A-ring substitution,[10],little variation in cytotoxicity
"O=c1c(O)c(-c2ccc(Br)cc2)oc2cccc(O)c12 [analogue 3f, 4′-Bromo-3,5-dihydroxyflavone]",variation in cytotoxicity with A-ring substitution,[9],little variation in cytotoxicity
same,variation in cytotoxicity with A-ring substitution,[10],little variation in cytotoxicity
"O=c1c(O)c(-c2ccc(Cl)cc2)oc2cc(O)ccc12 [analogue 3g, 4′-Chloro-3,7-dihydroxyflavone]","cytotoxicity, in words","[9]; A549, MTT, 48 h",particularly active
same,activity against lung cancer cell lines compared with the parent Fisetin,[9],substantially more active
"COc1ccc(-c2oc3cc(O)ccc3c(=O)c2O)cc1 [analogue 3m, 4′-Methoxy-3,7-dihydroxyflavone]",activity compared to that predicted by the para-Hammett constant,"[9]; A549, MTT, 48 h",enhanced activity compared to that predicted by the para-Hammett constant
"O=c1c(O)c(-c2ccc(C(F)(F)F)cc2)oc2cc(O)ccc12 [analogue 3n, 4′-Trifluoromethyl-3,7-dihydroxyflavone]","cytotoxicity, in words","[9]; A549, MTT, 48 h",particularly active
same,activity against lung cancer cell lines compared with the parent Fisetin,[9],substantially more active
"CS(=O)(=O)c1ccc(-c2oc3cc(O)ccc3c(=O)c2O)cc1 [analogue 3p, 4′-Methylsulfone-3,7-dihydroxyflavone]","cytotoxicity, in words","[9]; A549, MTT, 48 h",particularly active
same,activity against lung cancer cell lines compared with the parent Fisetin,[9],substantially more active
O=c1c(O)c(-c2ccc(O)c(O)c2)oc2cc(O)cc(O)c12 [quercetin],pKa of the 4′-hydroxyl group,[11],~ 9.4
same,pKa of the 7-hydroxyl group,[11]; most acidic position,~ 7.3
